Source: patent US12673961B2 (Agios Pharmaceuticals, Inc., priority 2022, dated 2026)

Target: T1, human PAH with the R408W mutation (Homo sapiens, UniProt P00439, R408W)
T1 construct: expressed in transfected cells
T1 sequence (P00439 1-452 R408W): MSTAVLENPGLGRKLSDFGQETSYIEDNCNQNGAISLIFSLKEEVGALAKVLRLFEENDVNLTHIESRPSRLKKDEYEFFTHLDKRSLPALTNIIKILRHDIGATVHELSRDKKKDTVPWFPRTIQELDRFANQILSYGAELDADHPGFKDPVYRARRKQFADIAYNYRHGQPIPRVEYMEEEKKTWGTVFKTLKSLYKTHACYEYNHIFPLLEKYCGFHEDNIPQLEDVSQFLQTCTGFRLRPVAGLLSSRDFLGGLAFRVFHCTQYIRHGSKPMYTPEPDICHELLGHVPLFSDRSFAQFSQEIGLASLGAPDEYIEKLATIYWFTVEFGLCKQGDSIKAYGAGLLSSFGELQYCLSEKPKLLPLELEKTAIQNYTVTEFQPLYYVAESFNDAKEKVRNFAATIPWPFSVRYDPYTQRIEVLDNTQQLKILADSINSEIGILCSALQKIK
Assay: Cell Based Phenylalanine Flux Assay;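 further: Ten-point dose curve from 2-fold serial dilutions, run in duplicate at 0.5% DMSO final, tracer step used 20 µM sepiapterin and 800 µM labeled phenylalanine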
Settings: A375 cells expressing human R408W PAH; 24 hrs compound incubation; 13C-Tyrosine by LC-MS; average where tested multiple times; read-out: AC50

AC50, 500 to 1000 nM:
O=C(c1nnc(C2CC2)o1)N1CCc2[nH]cnc2[C@H]1c1cc2cccc(Cl)n2n1 [Example 1137]
Cc1ccn2nc([C@H]3c4nc[nH]c4CCN3C(=O)c3cnco3)cc2c1 [Example 1184, (R)-(4-(5-methylpyrazolo [1,5-a]pyridin-2-yl)-6,7-dihydro-1H-imidazo[4,5-c]pyridin-5(4H)-yl)(oxazol-5-yl)methanone]
Cc1c(-c2nnc(C(=O)N3CCc4[nH]cnc4[C@H]3c3cc4cccc(C)n4n3)o2)cnn1C [Example 1188, (S)-(5-(1,5-dimethyl-1H-pyrazol-4-yl)-1,3,4-oxadiazol-2-yl)(4-(7-methylpyrazolo[1,5-a]pyridin-2-yl)-6,7-dihydro-1H-imidazo[4,5-c]pyridin-5(4H)-yl)methanone]
Cc1c(-c2nnc(C(=O)N3CCc4[nH]cnc4[C@H]3c3cc4cccc(C(F)(F)F)n4n3)o2)cnn1C [Example 1190, (S)-(5-(1,5-dimethyl-1H-pyrazol-4-yl)-1,3,4-oxadiazol-2-yl)(4-(7-(trifluoromethyl)pyrazolo[1,5-a]pyridin-2-yl)-6,7-dihydro-1H-imidazo [4,5-c]pyridin-5(4H)-yl)methanone]
Cc1ncoc1C(=O)N1CCc2[nH]cnc2[C@H]1c1cc2cccc(C(F)(F)F)n2n1 [Example 1198]
Cn1cc(-c2nnc(C(=O)N3CCc4[nH]cnc4[C@H]3c3cc4cccc(F)n4n3)o2)cn1 [Example 1224, (S)-(4-(7-fluoropyrazolo[1,5-a]pyridin-2-yl)-6,7-dihydro-1H-imidazo[4,5-c]pyridin-5(4H)-yl)(5-(1-methyl-1H-pyrazol-4-yl)-1,3,4-oxadiazol-2-yl) methanone]
O=C(c1nnc(C2CC2)o1)N1CCc2[nH]cnc2[C@H]1c1cc2cccc(F)n2n1 [Example 1246, (S)-(5-cyclopropyl-1,3,4-oxadiazol-2-yl)(4-(7-fluoropyrazolo[1,5-a]pyridin-2-yl)-6,7-dihydro-1H-imidazo[4,5-c]pyridin-5(4H)-yl)methanone]
O=C(c1nnc(-c2ccncn2)o1)N1CCc2[nH]cnc2[C@H]1c1cc2c(F)cccn2n1 [Example 1258, (S)-(4-(4-fluoropyrazolo[1,5-a]pyridin-2-yl)-6,7-dihydro-1H-imidazo[4,5-c]pyridin-5(4H)-yl)(5-(pyrimidin-4-yl)-1,3,4-oxadiazol-2-yl)methanone]

AC50, < 500 nM:
Cc1cccc2cc([C@@H]3c4nc[nH]c4CCN3C(=O)c3oc([C@@H](C)O)nc3C(F)F)nn12 [Example 1164, (4-(difluoromethyl)-2-((R)-1-hydroxyethyl)oxazol-5-yl)((S)-4-(7-methylpyrazolo [1,5-a]pyridin-2-yl)-6,7-dihydro-1H-imidazo[4,5-c]pyridin-5(4H)-yl)methanone]
C[C@@H](O)c1nc(C(F)F)c(C(=O)N2CCc3[nH]cnc3[C@H]2c2cc3cccc(Cl)n3n2)o1 [Example 1196, ((S)-4-(7-chloropyrazolo [1,5-a]pyridin-2-yl)-6,7-dihydro-1H-imidazo[4,5-c]pyridin-5(4H)-yl)(4-(difluoromethyl)-2-((R)-1-hydroxyethyl)oxazol-5-yl)methanone]
Cc1c(-c2nnc(C(=O)N3CCc4[nH]cnc4[C@H]3c3cc4c(Cl)cccn4n3)o2)cnn1C [Example 1214, (S)-(4-(4-chloropyrazolo [1,5-a]pyridin-2-yl)-6,7-dihydro-1H-imidazo[4,5-c]pyridin-5(4H)-yl)(5-(1,5-dimethyl-1H-pyrazol-4-yl)-1,3,4-oxadiazol-2-yl)methanone]
Cc1cccn2nc([C@@H]3c4nc[nH]c4CCN3C(=O)c3oc(C4(O)CC4)nc3C(F)F)cc12 [Example 1220, (S)-(4-(difluoromethyl)-2-(1-hydroxycyclopropyl)oxazol-5-yl)(4-(4-methylpyrazolo[1,5-a]pyridin-2-yl)-6,7-dihydro-1H-imidazo[4,5-c]pyridin-5(4H)-yl)methanone]
Cc1nc(C(C)(C)F)oc1C(=O)N1CCc2[nH]cnc2[C@H]1c1cc2cccc(C(F)(F)F)n2n1 [Example 1265, (S)-(2-(2-fluoropropan-2-yl)-4-methyloxazol-5-yl)(4-(7-(trifluoromethyl)pyrazolo [1,5-a]pyridin-2-yl)-6,7-dihydro-1H-imidazo[4,5-c]pyridin-5(4H)-yl)methanone]
Cc1cccc2cc([C@@H]3c4nc[nH]c4CCN3C(=O)c3oc(C4(O)CC4)nc3C(F)F)nn12 [Example 1280, (S)-(4-(difluoromethyl)-2-(1-hydroxycyclopropyl)oxazol-5-yl)(4-(7-methylpyrazolo[1,5-a]pyridin-2-yl)-6,7-dihydro-1H-imidazo[4,5-c]pyridin-5(4H)-yl)methanone]
COc1ccc(-c2nnc(C(=O)N3CCc4[nH]cnc4[C@H]3c3cc4c(Cl)cccn4n3)o2)nc1 [Example 1299, (S)-(4-(4-chloropyrazolo [1,5-a]pyridin-2-yl)-6,7-dihydro-1H-imidazo[4,5-c]pyridin-5(4H)-yl)(5-(5-methoxypyridin-2-yl)-1,3,4-oxadiazol-2-yl)methanone]
O=C(c1nnc(-c2ccccn2)o1)N1CCc2[nH]cnc2[C@H]1c1cc2c(C(F)F)cccn2n1 [Example 1314, (S)-(4-(4-(difluoromethyl)pyrazolo[1,5-a]pyridin-2-yl)-6,7-dihydro-1H-imidazo [4,5-c]pyridin-5(4H)-yl)(5-(pyridin-2-yl)-1,3,4-oxadiazol-2-yl)methanone]
COc1cccn2nc([C@@H]3c4nc[nH]c4CCN3C(=O)c3cnn4ccccc34)cc12 [Example 1326, (S)-(4-(4-methoxypyrazolo [1,5-a]pyridin-2-yl)-6,7-dihydro-1H-imidazo [4,5-c]pyridin-5(4H)-yl)(pyrazolo[1,5-a]pyridin-3-yl)methanone]

AC50, 1000 to 5000 nM:
O=C(c1nnc(C2CC2)o1)N1CCc2[nH]cnc2[C@@H]1c1cc2cccc(Cl)n2n1 [Example 1136, (R)-(4-(7-chloropyrazolo [1,5-a]pyridin-2-yl)-6,7-dihydro-1H-imidazo[4,5-c]pyridin-5(4H)-yl)(5-cyclopropyl-1,3,4-oxadiazol-2-yl)methanone]
O=C(c1ccnn1C(F)F)N1CCc2[nH]cnc2[C@@H]1c1cc2ccc(C(F)(F)F)cn2n1 [Example 1139, (R)-(1-(difluoromethyl)-1H-pyrazol-5-yl)(4-(6-(trifluoromethyl)pyrazolo [1,5-a]pyridin-2-yl)-6,7-dihydro-1H-imidazo[4,5-c]pyridin-5(4H)-yl)methanone]
Cc1ncoc1C(=O)N1CCc2[nH]cnc2[C@@H]1c1cc2cccc(Cl)n2n1 [Example 1175, (R)-(4-(7-chloropyrazolo [1,5-a]pyridin-2-yl)-6,7-dihydro-1H-imidazo[4,5-c]pyridin-5(4H)-yl)(4-methyloxazol-5-yl)methanone]
Cc1ccn2nc([C@@H]3c4nc[nH]c4CCN3C(=O)c3cnco3)cc2c1 [Example 1185, (S)-(4-(5-methylpyrazolo [1,5-a]pyridin-2-yl)-6,7-dihydro-1H-imidazo[4,5-c]pyridin-5(4H)-yl)(oxazol-5-yl)methanone]
Cc1ncoc1C(=O)N1CCc2[nH]cnc2[C@@H]1c1cc2cccc(C(F)(F)F)n2n1 [Example 1199]
O=C(c1nnc(C2CC2)o1)N1CCc2[nH]cnc2[C@@H]1c1cc2cccc(F)n2n1 [Example 1247, (R)-(5-cyclopropyl-1,3,4-oxadiazol-2-yl)(4-(7-fluoropyrazolo[1,5-a]pyridin-2-yl)-6,7-dihydro-1H-imidazo[4,5-c]pyridin-5(4H)-yl)methanone]
Cc1ncccc1-c1nnc(C(=O)N2CCc3[nH]cnc3[C@@H]2c2cc3c(C(F)(F)F)cccn3n2)o1 [Example 1305, (R)-(5-(2-methylpyridin-3-yl)-1,3,4-oxadiazol-2-yl)(4-(4-(trifluoromethyl)pyrazolo [1,5-a]pyridin-2-yl)-6,7-dihydro-1H-imidazo[4,5-c]pyridin-5(4H)-yl)methanone]
O=C(c1nnc(-c2ccccn2)o1)N1CCc2[nH]cnc2[C@@H]1c1cc2c(C(F)F)cccn2n1 [Example 1315, (R)-(4-(4-(difluoromethyl)pyrazolo[1,5-a]pyridin-2-yl)-6,7-dihydro-1H-imidazo [4,5-c]pyridin-5(4H)-yl)(5-(pyridin-2-yl)-1,3,4-oxadiazol-2-yl)methanone]
Cc1cccc2cc([C@H]3c4nc[nH]c4CCN3C(=O)c3nnc(C4(C)CC4)o3)nn12 [Example 1318, (R)-(5-(1-methylcyclopropyl)-1,3,4-oxadiazol-2-yl)(4-(7-methylpyrazolo[1,5-a]pyridin-2-yl)-6,7-dihydro-1H-imidazo[4,5-c]pyridin-5(4H)-yl)methanone]

AC50, > 5000 nM:
Cc1ccc2cc([C@H]3c4nc[nH]c4CCN3C(=O)c3nnc(C(C)(C)F)o3)nn2c1 [Example 1170, (R)-(5-(2-fluoropropan-2-yl)-1,3,4-oxadiazol-2-yl)(4-(6-methylpyrazolo[1,5-a]pyridin-2-yl)-6,7-dihydro-1H-imidazo[4,5-c]pyridin-5(4H)-yl)methanone]
COc1cccn2nc([C@H]3c4nc[nH]c4CCN3C(=O)c3nnc(-c4cnn(C)c4C)o3)cc12 [Example 1207, (R)-(5-(1,5-dimethyl-1H-pyrazol-4-yl)-1,3,4-oxadiazol-2-yl)(4-(4-methoxypyrazolo [1,5-a]pyridin-2-yl)-6,7-dihydro-1H-imidazo[4,5-c]pyridin-5(4H)-yl)methanone]
